{
  "source": "patent US20100173983A1",
  "about": "“METHOD FOR INDUCING AUTOPHAGY” (priority 2007, published 2010)",
  "key": {"[1]": {"tested_on": "R-182 cells", "experiment": "Mitochondrial membrane depolarization, JC-1 flow cytometry", "type": "cell-based, Human", "conditions": "cells treated 5 μg/ml", "source_text": "(§1) FIG. 8. Molecular evidence of autophagic cell death in R-182 ovarian cancer cells induced by Cpd 1. […] B, Beclin 1 binds to Bcl-2. Immunoprecipitation study using mitochondrial preparations of cells pre-treated with Cpd 1 as stated in A, and subjected to beclin 1 immunoprecitation. Immunoprecipitated fractions were washed in PBS, subjected to SDS-PAGE, blotted and then probed with a mouse anti-Bcl-2 antibody. Actin and Topo-1 were used as loading control. C, Depolarized cells resulting from over-expression of Bax and Beclin 1 following administration of Cpd 1. Cells were treated with Cpd 1 as described in A, pelleted and washed in HBSS and the cell pellet resuspended in the reaction buffer for JC-1 (Biovision, Inc. MitoCapture™ K250-100). HBSS-washed cells were analysed by flow cytometry (λexcit=488 nm and (λemit=530 nm for green fluorescence (depolarized) or 590 nm for red fluorescence (polarized). 10,000 gated events were measured with a BD FACScalibur. Results were expressed as mean±standard deviation (n=3).\nTo measure membrane depolarization cells were treated with Cpd 1 as described above, pelleted and washed in HBSS and the cell pellet resuspended in the reaction buffer for JC-1 (Biovision, Inc. MitoCapture™ K250-100). HBSS-washed cell pellets were resuspended in 1 mL aliquots of the Mitocapture reagent buffer with 1 μL of JC-1 solution in DMSO (Biovision)."}, "[2]": {"tested_on": "R182 cells", "experiment": "Phase-contrast microscopy, vacuole formation", "type": "cell-based, Human", "conditions": "5 μg/ml over 4 hr and 8 hr", "method": "FIG. 6. Phase-contrast images of R182 cells treated with vehicle (NT) or 5 μg/ml Cpd 1 over 4 hr and 8 hr (A).\nR182 cells treated with Cpd 1 were observed microscopically to determine if morphological and structural alterations to cellular integrity took place. Cells treated with Cpd 1 were hyper-vacuolated (see FIG. 6) and the plasma membrane appeared to bleb or form folds. […] These morphological changes observed in Cpd 1 treated cells are considered the hall mark of autophagy with the increased vacuoles formation thought to result in autophagosomes which eventually fuse with lysosomes to form autolysosomes. These structures contain catabolic hydrolases which are released into the cytoplasm when the lysosomal membrane becomes compromised."}, "[3]": {"tested_on": "caspase 3", "experiment": "Caspase-Glo 3/7 assay in R182 cells", "type": "cell-based, Human", "conditions": "R182 ovarian cancer explants; dose response and duration of exposure (5 μg/ml, 0-25 hr)", "method": "FIG. 2. Comparative induction of caspase 3 in R182 ovarian cancer explants by Cpd 1 and dehydroequol using either dose response (A) or duration of exposure (B). Caspase 3 activity was assessed using the Caspase-Glo 3/7 assays.\nFor caspase activity assays, 10 μg of protein in 50 μL total volume was mixed with 50 μL of equilibrated Caspase-Glo 3/7, 8, or 9 reagents (Promega). After incubating at room temperature for 1 hour, luminescence was measured using TD 20/20 Luminometer (Turner Designs, Sunnyvale, Calif.). Blank values were subtracted and fold-increase in activity was calculated based on activity measured from untreated cells. Each sample was measured in triplicate."}, "[4]": {"tested_on": "XIAP", "experiment": "Western blot of R-182 cells, XIAP", "type": "cell-based, Human", "conditions": "5 μg/ml over 24 hr", "source_text": "as §1\nAfter treatment with Cpd 1, protein was extracted from cells and measured as previously described (Kamsteeg et al., 2003). For separation of the cytoplasmic and mitochondrial fractions, cell pellets were processed using the ApoAlert Cell Fractionation kit (Promega) according to the manufacturer's instructions. […]"}, "[5]": {"tested_on": "cytochrome c", "experiment": "Western blot of R-182 cytoplasmic extracts, cytochrome c", "type": "cell-based, Human", "conditions": "R-182 cells, 5 μg/ml over 8 hr", "method": "FIG. 9. Cpd 1-induced cell death involves cytochrome c translocation to the cytoplasm. R-182 cells treated with Cpd 1 (5 μg/ml) over 8 hr and the cytoplasmic and mitochondrial fractions were separated. […] Cox-4 was included to show the integrity of the mitochondrial preparation.\nAfter treatment with Cpd 1, protein was extracted from cells and measured as previously described (Kamsteeg et al., 2003). For separation of the cytoplasmic and mitochondrial fractions, cell pellets were processed using the ApoAlert Cell Fractionation kit (Promega) according to the manufacturer's instructions. 20 μg protein was denatured in sample buffer (2.5% sodium dodecyl sulfate [SDS], 10% glycerol, 5% β-mercapto-ethanol, 0.15 M Tris, pH 6.8, and 0.01% bromophenol blue) and subjected to 12% SDS polyacrylamide gel electrophoresis (SDS-PAGE) as previously described (Kamsteeg et al., 2003). The following antibodies and concentrations were used: mouse anti-Bax (BD Biosciences, 1:500), rabbit anti-actin (Sigma, 1:10,000), rabbit anti-cytochrome c (BD Biosciences, 1:1,000), mouse anti-Cox-4 (BD Biosciences, 1:500), rabbit anti-beclin 1 (Santa Cruz Biotechnology, 1:600), mouse anti LC3 (Nanotools, 1:500). […] Proteins were observed using enhanced chemiluminescence (Pierce, Rockford, Ill.).\nCpd 1-induced cell death also involves cytochrome c translocation to the cytoplasm (FIG. 9). […]"}, "[6]": {"tested_on": "S6K", "experiment": "Western blot of xenograft tumour extracts, S6K phosphorylation", "type": "in vivo, SCID mice", "conditions": "tumour-bearing mice dosed with Cpd 1, compared to control", "method": "FIG. 11. Cpd 1 markers of autophagy observed in in vitro studies are also present in vivo. […] T-S6K served as loading control.\nA downstream target of mTOR is the ribosomal protein S6K kinase thought to have a role in tumour invasiveness, motility and angiogenesis as well as other degenerative diseases such as diabetes (Dann et al., 2007). […] Tumour tissue was homogenised in lysis buffer containing 1% Nonidet P-40, 0.1% SDS, 0.5% deoxycholate, 150 mM NaCl, 50 mM Tris-HCl pH7.5, 1 mM EDTA, 1 mM PMSF and protease inhibitors (Roche) on ice for 30 minutes. After centrifugation at 15,000×g for 15 minutes, soluble extract was were aliquoted into a separate tube, protein content assayed by the BCA method (Pierce), and 50 μg protein loaded on SDS-PAGE gels. Proteins were electrophoretically transferred to PVDF membranes (Millipore Immobilon P) and the membranes were probed with antibodies specific to p-S6K and t-S6K (LifeSpan Bioscience). The blots were developed on X-ray films using HRP-conjugated secondary antibodies and a chemiluminescent substrate (ECL, Amersham, N.Y.)."}},
  "data": [
    {"smiles": "COc1ccc([C@H]2c3ccc(O)c(C)c3OC[C@H]2c2ccc(O)cc2)cc1", "note": "(stereo in doubt) [Cpd 1, 3-(4-hydroxyphenyl)-4-(4-methoxyphenyl)-8-methylchroman-7-ol]", "values": [
      {"measurement": "mitochondrial membrane depolarization", "setting": "[1]", "value": "results in mitochondrial membrane depolarization"},
      {"measurement": "vacuole formation", "setting": "[2]", "value": "vacuole formation is clearly evident"},
      {"measurement": "caspase 3 activity", "setting": "[3]", "value": "did not induce caspase 3 activity"},
      {"measurement": "XIAP expression", "setting": "[4]", "value": "remains unchanged"},
      {"measurement": "occurrence of cytochrome c in the cytoplasm", "setting": "[5]", "value": "increased over time"},
      {"measurement": "phosphorylation status of S6K (S6K-P) in tumour extracts", "setting": "[6]", "value": "reduced compared to control"}
    ]}
  ]
}
